Data: patent US20230348362A1, “LIPID COMPOUNDS AND LIPID NANOPARTICLE COMPOSITIONS” (Suzhou Abogen Biosciences Co., Ltd., priority 2021, published 2023)

Experiments:
Type in all cases: physicochemical
[1] = Lipid nanoparticle size and polydispersity by dynamic light scattering; conditions: LNP of lipid/DSPC/cholesterol/PEG-lipid 50:10:38.5:1.5 encapsulating hEPO mRNA
How it was run: (§1)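 LNPs made from ionizable lipid/DSPC/cholesterol/PEG-lipid (50:10:38.5:1.5) and mRNA in citrate pH 4 by microfluidic mixing, lipid:mRNA about 10:1–30:1 w/w, then dialysed into DPBS and filtered. Size and PDI measured by DLS in backscatter mode; encapsulation efficiency measured by RiboGreen assay.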

[2] = Apparent pKa of LNP formulations, TNS fluorescence assay; conditions: LNP cationic lipid/DSPC/cholesterol/DMG-PEG 50/10/38.5/1.5 mol %
How it was run: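 LNPs (cationic lipid/DSPC/cholesterol/DMG-PEG 50/10/38.5/1.5 mol %) diluted to 0.1 mg/mL total lipid in citrate/phosphate/borate/NaCl buffers spanning pH 3–9 with TNS. Fluorescence (ex 325, em 435 nm) read at room temperature; pKa taken as the pH at half-maximal intensity from sigmoidal fit.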

[3] = Encapsulation efficiency of lipid nanoparticles, Quant-it Ribogreen RNA assay; conditions: LNP of lipid/DSPC/cholesterol/PEG-lipid 50:10:38.5:1.5 encapsulating hEPO mRNA
How it was run: as §1

Compound | polydispersity [1] | size (nm) [1] [nm] | Apparent Pka [2] | Encapsulation Efficiency [3] [%]
CCCCCCCCC(CCCCCCCC)COC(=O)CCOCCN(CC=C(C)C)CCN(CCO)CCOCCC(=O)OCC(CCCCCCCC)CCCCCCCC [Compound 120] | 0.043 | 75.42 | 6.546 | 94.33
CCCCCCCCC(CCCCCCCC)COC(=O)CCCCCN(CCO)CCN(CCCCCC(=O)OCC(CCCCCCCC)CCCCCCCC)Cc1ccncc1 [Compound 37] | 0.037 | 71.53 | 6.988 | 87.2
CCCCCCCCCCCC(=O)OCCCCCN(CCN(CCO)CCCCCOC(=O)CC(CCCCCCCC)CCCCCCCC)C1CCCCCC1 [Compound 94] | 0.061 | 58.34 | 6.448 | 90.26
CCCCCCCCC(CCCCCCCC)COC(=O)CCCCCN(CCCCCC)CCN(CCCCCC(=O)OCC(CCCCCCCC)CCCCCCCC)C1CCC(O)CC1 (stereo not shown) [Compound 53] | 0.062 | 63.7 | 5.872 | 95.7
CCCCCCCCC(CCCCCCCC)COC(=O)CCCCCN(CCO)CCN(CC=C(C)C)CCOCCC(=O)OCC(CCCCCCCC)CCCCCCCC [Compound 123] | 0.152 | 59.28 | 6.336 | 94.58
CCCCCCCCC(CCCCCCCC)COC(=O)CCCCCN(CCO)CCN(CCCCCC(=O)OCC(CCCCCCCC)CCCCCCCC)C1CCSCC1 [Compound 30] | 0.115 | 53.56 | 6.131 | 92.9
CCCCCCCCC(CCCCCCCC)CNC(=O)CCCCCN(CCO)CCN(CCCCCC(=O)OCC(CCCCCCCC)CCCCCCCC)C1CCCC1 [Compound 16] | 0.035 | 59.48 | 6.757 | 99.2
CCCCCCCCC(CCCCCC)COC(=O)CCCCCN(CCCCN(CCO)CCCCC(COC(=O)CCCCCCC)COC(=O)CCCCCCC)C1CCCCCCC1 (stereo not shown) [Compound 194] | 0.15 | 102.1 | 6.705 | 84.59
CCCCCCCCCCCOC(=O)CCCCCN(CCN(CCCCCC(=O)OCC(CCCCCCCC)CCCCCCCC)CCNc1c(NC)c(=O)c1=O)C1CCC1 [Compound 82] | 0.066 | 67.32 | 6.599 | 91.54
CCCCCCCCC(CCCCCC)COC(=O)CCCCCN(CCO)CCN(CCCCC(COC(=O)CCCCCCC)COC(=O)CCCCCCC)C1CCCCCCC1 (stereo not shown) [Compound 144] | 0.099 | 68.28 | 6.182 | 84.58
CCCCCCCCOC(=O)C(CCCCN(CCN(CCO)CCCCCC(=O)OCC(CCCCCC)CCCCCCCC)C1CCC1)C(=O)OCCCCCCCC (stereo not shown) [Compound 223] | 0.043 | 70.98 | 6.395 | 93.03
CCCCCCCCCCCOC(=O)CCCCCN(CCN(CCO)CCCCCC(=O)OCC(CCCCCCCC)CCCCCCCC)C1CC(OC)C1 (stereo not shown) [Compound 54] | 0.065 | 77.99 | 6.51 | 93.4
CCCCCCCCC(CCCCCCCC)COC(=O)CCCCCN(CCO)CCN(CCCCCC(=O)OCC(CCCCCCCC)CCCCCCCC)Cc1ccc([N+](=O)[O-])cc1 [Compound 38] | 0.092 | 54.42 | 6.253 | 89.8
CCCCCCCCC(CCCCCCCC)CNC(=O)CCCCCN(CCCCN(CCO)CCCCC(COC(=O)CCCCCCC)COC(=O)CCCCCCC)C1CCC1 [Compound 186] | 0.139 | 72.88 | 7.617 | 91.69
CCCCCCCCC(CCCCCC)CNC(=O)CCCCCN(CCO)CCN(CCCCC(COC(=O)CCCCCCC)COC(=O)CCCCCCC)C1CCCCCC1 (stereo not shown) [Compound 143] | 0.057 | 69.16 | 6.687 | 90.39
CCCCCCCCC(CCCCCC)COC(=O)CCCCCN(CCCCN(CCO)CCCCC(COC(=O)CCCCCCC)COC(=O)CCCCCCC)C1CC1 (stereo not shown) [Compound 190] | 0.13 | 78.4 | 6.699 | 88.81
CCCCCCCCC(CCCCCCCC)COC(=O)CCCCCN(CCO)CCN(CCCCC)CCCCCC(=O)OCC(CCCCCCCC)CCCCCCCC [Compound 124] | 0.111 | 59.55 | 5.997 | 94.60
CCCCCCCCC(CCCCCCCC)COC(=O)CCCCCN(C)CCN(CCO)CCCCCC(=O)OCC(CCCCCCCC)CCCCCCCC [Compound 26] | 0.13 | 63.47 | 7.024 | 97.57
CCCCCCCCC(CCCCCC)COC(=O)CCCCCN(CCO)CCN(CCCCC(COC(=O)CCCCCCC)COC(=O)CCCCCCC)C1CCCCCC1 (stereo not shown) [Compound 142] | 0.055 | 71.85 | 6.218 | 87.29
CCCCCCCCCCCOC(=O)CCCCCN(CCN(CCO)CCCCCCC(=O)OCC(CCCCCCCC)CCCCCCCC)C1CCCCC1 [Compound 43] | 0.07 | 66.41 | 6.346 | 89.6
CCCCCCCCC(CCCCCCCC)COC(=O)CCCCCN(C)CCN(CCCCCC(=O)OCC(CCCCCCCC)CCCCCCCC)C1CCC(O)CC1 (stereo not shown) [Compound 51] | 0.028 | 83.92 | 6.579 | 97.0
CCCCCCCCC(CCCCCC)COC(=O)CCCCCN(CCCCN(CCO)CCCCC(COC(=O)CCCCCCC)COC(=O)CCCCCCC)C1CCCC1 (stereo not shown) [Compound 191] | 0.117 | 86.61 | 6.552 | 93.35
CCCCCCCCCCC(=O)OCC(CCCCN(CCO)CCN(CCCCC(COC(=O)CCCCCCCCCC)COC(=O)CCCCCCCCCC)C1CCC1)COC(=O)CCCCCCCCCC [Compound 168] | 0.107 | 78.08 | 6.537 | 91.48
CCCCCCCCC(CCCCCC)CNC(=O)CCCCCCCN(CCO)CCN(CCCCC(COC(=O)CCCCCCC)COC(=O)CCCCCCC)C1CCCCC1 (stereo not shown) [Compound 235] | 0.093 | 67.92 | 6.545 | 88.53
CCCCCCCCCCCC(=O)OCC(CCCCN(CCO)CCN(CCCCC(COC(=O)CCCCCCCCCCC)COC(=O)CCCCCCCCCCC)C1CCC1)COC(=O)CCCCCCCCCCC [Compound 169] | 0.153 | 73.05 | 6.447 | 89.88
CCCCC/C=C\CCCOC(=O)CCCCCN(CCN(CCO)CCCCCC(=O)OCC(CCCCCCCC)CCCCCCCC)C1CCCCC1 [Compound 19] | 0.046 | 80.6 | 6.269 | 90.2
CCCCCCCCC(CCCCCC)COC(=O)CCCCCN(CCCCN(CCO)CCCCC(COC(=O)CCCCCCC)COC(=O)CCCCCCC)C1CCCCC1 (stereo not shown) [Compound 192] | 0.109 | 82.66 | 6.707 | 90.40
CCCCCCCCC(CCCCCCCC)COC(=O)CCCCCN(CCC)CCN(CCCCCC(=O)OCC(CCCCCCCC)CCCCCCCC)C1CCC(O)CC1 (stereo not shown) [Compound 52] | 0.089 | 67.63 | 6.114 | 95.6
